Laboratory results published in PubChem BioAssay (NCI).
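How tested: cells in 96-well plates exposed to compound for 48 hours at five concentrations. TGI: concentration producing complete growth inhibition.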

Experiments:
Assay in all cases: growth of human tumour cells (NCI), 48 h
CCRF-CEM leukemia = system: CCRF-CEM leukemia
SF-539 CNS = system: SF-539 CNS
HS 578T breast = system: HS 578T breast
786-0 renal = system: 786-0 renal
MDA-MB-231 breast = system: MDA-MB-231 breast
LOX IMVI melanoma = system: LOX IMVI melanoma
T-47D breast = system: T-47D breast
RPMI-8226 leukemia = system: RPMI-8226 leukemia
M14 melanoma = system: M14 melanoma
A498 renal = system: A498 renal

| SMILES | TGI (CCRF-CEM leukemia) | TGI (SF-539 CNS) | TGI (HS 578T breast) | TGI (786-0 renal) | TGI (MDA-MB-231 breast) | TGI (LOX IMVI melanoma) | TGI (T-47D breast) | TGI (RPMI-8226 leukemia) | TGI (M14 melanoma) | TGI (A498 renal) |
| --- | --- | --- | --- | --- | --- | --- | --- | --- | --- | --- |
| O=C1c2sccc2C(=O)c2c(CO)csc21 | > 51.6 µM | 14.8 µM | 33.7 µM | 18.5 µM | 50.1 µM | 10.6 µM | 17.5 µM | > 100 µM | 7.55 µM | 31.8 µM |
| O=C(Cn1c(-c2ccccc2)cc2ccccc21)N1CCOCC1 | > 100 µM | > 100 µM | > 100 µM | > 100 µM | > 100 µM | > 100 µM | > 100 µM | > 100 µM | > 100 µM | > 100 µM |
| COc1cc(CC2C(=O)OCC2Cc2ccc(OC)c(OC)c2)ccc1O (stereo not given) | > 100 µM | > 100 µM | > 100 µM | > 100 µM | > 100 µM | > 100 µM | > 100 µM | > 100 µM | > 100 µM | > 100 µM |
| Nc1nc(Nc2cc(F)c(Cl)c(F)c2)cc(=O)[nH]1 | > 100 µM | > 100 µM | 66.5 µM | > 100 µM | > 100 µM | > 100 µM | > 100 µM | > 100 µM | > 100 µM | > 100 µM |
| CC1SCCc2nc3ccccc3n21 (stereo not given) | > 100 µM | > 100 µM | > 100 µM | > 100 µM | > 100 µM | > 100 µM | > 100 µM | > 100 µM | > 100 µM | > 100 µM |
| CO[C@@H](c1ccccc1)[C@H](O)[C@@](O)(c1ccccc1)P(=O)(OC)OC | > 100 µM | > 100 µM | > 100 µM | > 100 µM | > 100 µM | > 100 µM | > 100 µM | > 100 µM | > 100 µM | > 100 µM |
| CCOC(=O)c1c(SCCN(CC)CC)n(-c2ccccc2)c(=S)n(-c2ccccc2)c1=O | 3.34 µM | 9.11 µM | 28 µM | 3.17 µM | 9.04 µM | 4.03 µM | 15.3 µM | 3.87 µM | 3.13 µM | 29 µM |
| Cc1cc(NS(=O)(=O)c2ccc(NC(NC(=O)OC(C)C)(C(F)(F)F)C(F)(F)F)cc2)nc(C)n1 | > 100 µM | > 100 µM | > 100 µM | > 100 µM | > 100 µM | > 100 µM | > 100 µM | > 100 µM | > 100 µM | > 100 µM |
| N#Cc1c(N)n(-c2nc3ccccc3s2)c(=O)c2cc([N+](=O)[O-])ccc12 | 18.9 µM | 28 µM | 36.9 µM | > 66.3 µM | 50.5 µM | 19.7 µM | > 100 µM | > 100 µM | > 55 µM | 98.1 µM |
| Cc1nnc(N)s/c1=N/O | > 100 µM | > 100 µM | > 100 µM | > 100 µM | > 100 µM | > 100 µM | > 100 µM | > 100 µM | > 100 µM | > 100 µM |
| CNc1nc(OC)c2c(n1)[n+](C)cn2C | > 100 µM | > 100 µM | > 100 µM | > 100 µM | > 100 µM | > 100 µM | > 100 µM | > 100 µM | > 100 µM | > 100 µM |
| CC(=O)OC/C=C/Cn1nc(Br)c(=O)[nH]c1=O | > 100 µM | > 100 µM | > 100 µM | > 100 µM | > 100 µM | > 100 µM | > 100 µM | > 100 µM | > 100 µM | > 100 µM |
| CCN(CC)CCCNc1nnc(C)c2[nH]c3ccccc3c12 | 63.9 µM | 5.86 µM | 38 µM | 94 µM | 39.5 µM | 30.9 µM | 68.9 µM | > 100 µM | 32.4 µM | 43.1 µM |
| CCOP(=O)(OCC)/C(C#N)=C(\C)c1ccco1 | > 10 µM | > 10 µM | > 10 µM | > 10 µM | > 10 µM | > 10 µM | > 10 µM | > 10 µM | > 10 µM | > 10 µM |
| N#Cc1c2c(c(Nc3ccc(Cl)cc3)n3c1nc1ccccc13)CCCC2 | > 100 µM | > 100 µM | > 87.4 µM | > 100 µM | > 100 µM | > 100 µM | > 100 µM | 36.1 µM | > 100 µM | > 100 µM |
| O=C1Cc2c(-c3ccccc3)cc(-c3ccc(Cl)cc3)nc2-c2ccccc2N1 | > 53.4 µM | 19.8 µM | 11.8 µM | 3.51 µM | 19.2 µM | 21.9 µM | 17.8 µM | > 100 µM | > 70.4 µM | 3.67 µM |
| CNC(=O)N(C)C(=O)c1ccccc1C(=O)N(C)C(=O)NC | > 10 µM | > 10 µM | > 10 µM | > 10 µM | > 10 µM | > 10 µM | > 10 µM | > 10 µM | > 10 µM | > 10 µM |
| CC(=O)CC(=O)N1CCOC1=O | > 10 µM | > 10 µM | > 10 µM | > 10 µM | > 10 µM | > 10 µM | > 10 µM | > 10 µM | > 10 µM | > 10 µM |
| CCOC(=O)c1ccc(-c2cccs2)[nH]1 | > 100 µM | > 100 µM | > 100 µM | > 100 µM | > 100 µM | > 100 µM | > 92.1 µM | > 100 µM | > 100 µM | > 100 µM |
| C(/Cc1ccc2c(c1)OCO2)=N\NC1=NCCCCN1 | > 100 µM | > 100 µM | > 100 µM | > 100 µM | > 100 µM | > 100 µM | > 100 µM | > 100 µM | 35.1 µM | 91.4 µM |
| Cn1c(=O)c2c(n(C)c1=O)n1c(=O)c3ccccc3nc1n2C | > 100 µM | > 100 µM | > 100 µM | > 100 µM | > 100 µM | > 100 µM | > 100 µM | > 100 µM | > 100 µM | > 100 µM |
| CCCCCNC(=O)OC1CCn2c1nc1c2C(=O)C(C)=C(N2CC2)C1=O (stereo not given) | > 100 µM | 5.33 µM | 6.24 µM | 1.75 µM | 5.31 µM | 1.07 µM | 7.16 µM | > 100 µM | 4.04 µM | 3.31 µM |
| COc1ccc(NC(=S)Nc2cccc(C)n2)cc1 | > 100 µM | > 100 µM | > 100 µM | > 100 µM | > 100 µM | > 100 µM | > 100 µM | > 100 µM | > 100 µM | > 100 µM |
| CCOC(=O)C1(NC(=O)OC(C)(C)C)CCc2[nH]oc(=O)c2C1 (stereo not given) | > 100 µM | > 100 µM | > 100 µM | > 100 µM | > 100 µM | > 100 µM | > 100 µM | > 100 µM | > 100 µM | > 100 µM |
| COc1ccc(N=C(SSC(=Nc2ccc(OC)cc2)c2ccc([N+](=O)[O-])o2)c2ccc([N+](=O)[O-])o2)cc1 | > 22.5 µM | > 21.9 µM | 5.43 µM | 4.18 µM | 7.33 µM | 5.05 µM | 4.2 µM | > 100 µM | 4.98 µM | 25.8 µM |
| CCc1n[nH]c(=O)n1-c1ccncc1 | > 100 µM | > 100 µM | > 100 µM | > 100 µM | > 100 µM | > 100 µM | > 100 µM | > 100 µM | > 100 µM | > 100 µM |
